{"source": "patent US20040115160A1", "about": "“Quaternary ammonium esters for disinfection and preservation” (priority 2002, published 2004)", "type_in_all_cases": "cell-based", "key": {"[1]": {"system": "cells seeded in Millicell HA 13 mm inserts", "assay": "Sodium fluorescein permeability assay", "conditions": "20 min", "description": "A 0.5 ml cell suspension containing 2×10^5 cells was seeded in Millicell HA 13 mm inserts (Millipore, Bedford, Mass.). The inserts were transferred into 24 well plates containing 0.5 ml of minimum essential medium (MEM) (BioWhittaker, Walkersville, Md.) per well. The plates were then incubated at 37° C. with 5 percent carbon dioxide for six days. Fresh media was added to the wells on days 2 through 6. On day 6 the inserts were used for the permeability assay.\nEach insert was gently rinsed three times with 1 ml of Hanks' balanced salt solution (HBSS) using a 10 ml syringe, without a needle. An amount of 0.5 ml of test solution was added to separate inserts that had been placed in a fresh 24 well plate. Triplicate inserts were used for each test solution. The inserts were incubated in a 100 percent humidified chamber at 37 degrees Celsius for twenty minutes. Each series of triplicate samples was handled sequentially to allow exact timing of the treatment and subsequent steps. After incubation, each insert was individually rinsed five times with 1 ml HBSS using a 10 ml syringe without a needle, and then placed in a fresh 24 well plate containing 0.5 ml HBSS in each well. To each insert was added 0.5 ml of sodium fluorescein (3 mg/100 ml in HBSS). The inserts were incubated at room temperature for twenty minutes, removed from the wells, and the amount of sodium fluorescein was measured using a fluorometer at […]. Triplicate negative controls (HBSS solution) and positive controls consisting of sodium dodecyl sulphate (SDS) in water were included during these evaluations. Sodium fluorescein permeability assay results for composition numbers 1 and 14 are summarized below in Table 4."}, "[2]": {"system": "Staphylococcus aureus (ATCC 6538)", "assay": "Stand-alone biocidal test without organic soil", "conditions": "25 ppm in BBS, without organic soil", "description": "(§1) A test was conducted to study the microbiocidal efficacy of a solution containing a quaternary ammonium ester of the present invention employing borate buffered saline (BBS). The antimicrobial efficacy of each of the various compositions for the chemical disinfection of contact lenses was evaluated. Microbial challenge inoculums were prepared using Pseudomonas aeruginosa (ATCC 9027), Staphylococcus aureus (ATCC 6538), Serratia marcescens (ATCC 13880), Candida albicans (ATCC 10231) and Fusarium solani (ATCC 36031). The test organisms were cultured on appropriate agar and the cultures were harvested using sterile DPBST (Dulbecco's Phosphate Buffered Saline plus 0.05 percent weight/volume polysorbate 80) or a suitable diluent and transferred to a suitable vessel. Spore suspensions were filtered through sterile glass wool to remove hyphal fragments. Serratia marcescens, as appropriate, was filtered through a 1.2 mμ filter to clarify the suspension. After harvesting, the suspension was centrifuged at no more than 5000×g for a maximum of 30 minutes at 20 to 25° C. The supernatant was poured off and resuspended in DPBST or other suitable diluent. The suspension was centrifuged a second time, and resuspended in DPBST or other suitable diluent. All challenge bacterial and fungal cell suspensions were adjusted with DPBST or other suitable diluent to 1×10^7 to 1×10^8 cfu/ml. The appropriate cell concentration may be estimated by measuring the turbidity of the suspension, for example, using a spectrophotometer at a preselected wavelength, for example 490 nm. One tube was prepared containing a minimum of 10 ml of test solution per challenge organism. Each tube of the solution to be tested was inoculated with a suspension of the test organism sufficient to provide a final count of 1×10^5 to 1×10^6 cfu/ml, the volume of the inoculum not exceeding 1 percent of the sample volume. Dispersion of the inoculum was ensured by vortexing the sample for at least 15 seconds. The inoculated product was stored at 10 to 25° C. Aliquots in the amount of 1.0 ml were taken of the inoculated product for determination of viable counts after certain time periods of disinfection. The time points for the bacteria were, for example, 1, 2, 3 and 4 hours when the proposed regimen soaking time was four hours. Yeast and mold were tested at an additional timepoint of 16 hours (4 times the regimen time). The suspension was mixed well by vortexing vigorously for at least 5 seconds. The 1.0 ml aliquots removed at the specified time intervals were subjected to a suitable series of decimal dilutions in validated neutralizing media. The suspensions were mixed vigorously and incubated for a suitable period of time to allow for neutralization of the microbial agent at room temperature. The viable count of organisms was determined in appropriate dilutions by preparation of triplicate plates of trypticase soy (TSA) agar for bacteria and Sabouraud dextrose agar (SDA) for mold and yeast. The bacterial recovery plates were incubated at 30 to 35° C. for two to four days. The yeast was incubated at 20 to 30° C. for two to four days and mold recovery plates were incubated at 20 to 25° C. for three to seven days. The average number of colony forming units was determined on countable plates. Countable plates refer to 30 to 300 cfu/plates for bacteria and yeast, and 8 to 80 cfu/plate for mold except when colonies are observed only for the 10^0 or 10^−1 dilution plates. The microbial reduction was then calculated at the specified time points. […] Following inoculation in a validated neutralizing broth and incubation for an appropriate period of time, the inoculum control must be between 1.0×10^5 to 1.0×10^6 cfu/ml. […]"}, "[3]": {"system": "Fusarium solani (ATCC 36031)", "assay": "Stand-alone biocidal test without organic soil", "conditions": "Fusarium solani, read-out: Stand-alone biocidal result (microbial log reduction) F. solani", "description": "as §1"}}, "note": "Read-outs that look alike come from different tables or passages of the source."}
{"smiles": "CCCCCCCCCCCCCC(=O)OCCC[N+](C)(C)Cc1ccccc1", "note": "[Compound 1, N-myristoyloxypropyl-N-benzyl-N,N-dimethylammonium chloride]", "values": [{"measurement": "Sodium fluorescein permeability, Fluorescence Units", "setting": "[1]; 5 ppm", "value": 71, "unit": "Fluorescence Units"}, {"measurement": "Sodium fluorescein permeability, Fluorescence Units", "setting": "[1]; 10 ppm", "value": 71, "unit": "Fluorescence Units"}, {"measurement": "Sodium fluorescein permeability, Fluorescence Units", "setting": "[1]; 15 ppm", "value": 77, "unit": "Fluorescence Units"}, {"measurement": "Sodium fluorescein permeability, Fluorescence Units", "setting": "[1]; 25 ppm", "value": 76, "unit": "Fluorescence Units"}, {"measurement": "Sodium fluorescein permeability, Fluorescence Units", "setting": "[1]; 100 ppm", "value": 554, "unit": "Fluorescence Units"}, {"measurement": "Stand-alone biocidal result (microbial log reduction) S. aureus", "setting": "[2]; 1 hr.", "value": 4.6}, {"measurement": "Stand-alone biocidal result (microbial log reduction) S. aureus", "setting": "[2]; 4 hr.", "value": ">4.8"}, {"measurement": "log reduction at 25 ppm", "setting": "[3]; ATCC36031, 1 h", "value": 4}, {"measurement": "log reduction at 25 ppm", "setting": "[3]; ATCC36031, 4 h", "value": 4.2}]}
